These results are taken from the supplement of paper PMC10331698.

± gives the standard deviation of the averaged measurements.

Assay in all cases: level (log10 ratio to DMSO vehicle control); higher = higher biomarker level / cell amount than vehicle control
Compound in assay [1]: CO[Si](C)(CCC(F)(F)C(F)(F)C(F)(F)C(F)(F)C(F)(F)C(F)(F)F)OC [Dimethoxymethyl((perfluorohexyl)ethyl)silane] (in DMSO)
On the procedure: (§1)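 BioMAP Diversity Plus panel of 12 human primary cell co-culture systems (3C, 4H, LPS, SAg, BT, BF4T, BE3C, CASM3C, HDF3CGF, KF3CT, MyoF, Mphg). Compounds were added 1 h before stimulation and left for 24 h (MyoF 48 h; BT 72 h for soluble read-outs or 6 d for IgG). Biomarkers were read by ELISA, cytotoxicity by SRB, PBMC viability and proliferation by Alamar Blue. Each well value was divided by the mean of 8 DMSO control wells on the same plate and log10 transformed; duplicate blinded samples were tested at 4 concentrations.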

Compound in assay [2]: NS(=O)(=O)C(F)(F)C(F)(F)C(F)(F)C(F)(F)C(F)(F)C(F)(F)C(F)(F)C(F)(F)F [Perfluorooctanesulfonamide] (in DMSO)
On the procedure:
as §1

Compound in assay [3]: OCCC(F)(F)C(F)(F)C(F)(F)C(F)(F)F [4:2 Fluorotelomer alcohol] (in DMSO)
On the procedure: as §1

Compound in assay [4]: CN(C(=O)C(F)(F)C(F)(F)C(F)(F)F)[Si](C)(C)C [N-Methyl-N-trimethylsilylheptafluorobutyramide] (in DMSO)
On the procedure:
as §1

Compound in assay [5]: OCC(F)(F)OC(F)(F)C(F)(F)OC(F)(F)C(F)(F)OC(F)(F)CO [1H,1H,11H,11H-Perfluorotetraethylene glycol] (in DMSO)
On the procedure:
as §1

Compound in assay [6]: O=C(O)CCC(F)(C(F)(F)F)C(F)(F)F [4,4-bis(Trifluoromethyl)-4-fluoropropanoic acid] (in DMSO)
On the procedure:
as §1

Compound in assay [7]: O=C(O)C=C(C(F)(F)F)C(F)(F)F [3,3-Bis(trifluoromethyl)-2-propenoic acid] (in DMSO)
On the procedure:
as §1

Compound in another assay: O=C(O)C(F)(F)C(F)(F)C(F)(F)C(F)(F)C(F)(F)C(F)(F)C(F)(F)C(F)(F)C(F)(F)C(F)(F)F [Perfluoroundecanoic acid] (in DMSO)
As to conditions: 6700 nM. On the procedure:
as §1

For CASM3C:CXCL8/IL-8, the “level (log10)” value in assay [1] (6700 nM) was -0.004; in assay [1] (20000 nM), 0.004 ± 0.0085; in assay [2] (6700 nM) it was -0.0055 ± 0.0035; in assay [2] (20000 nM), -0.0125 ± 0.0035; in assay [3] (6700 nM), -0.002 ± 0.0028; in assay [3] (20000 nM) it was 0.0035 ± 0.026. Further, the “level (log10)” value is 0.019 ± 0.031 in assay [3] (60000 nM); -0.006 in assay [4] (6700 nM); -0.006 ± 0.0028 in assay [4] (20000 nM); 0.008 ± 0.0042 in assay [4] (60000 nM); 0.002 ± 0.016 in assay [5] (6700 nM); -0.0085 ± 0.016 in assay [5] (20000 nM). Further, the “level (log10)” value in assay [5] (60000 nM) is -0.004 ± 0.011; in assay [6] (6700 nM) it was -0.0115 ± 0.012; in assay [6] (20000 nM) it was -0.0135 ± 0.012; in assay [6] (60000 nM), -0.0195 ± 0.005; in assay [7] (6700 nM), -0.0025 ± 0.0021; in assay [7] (20000 nM) it was -0.0045 ± 0.005. The “level (log10)” value in assay [7] (60000 nM) was 0.0125 ± 0.022; with Perfluoroundecanoic acid, 0.0005 ± 0.0021.

As to CASM3C:CXCL9/MIG, the “level (log10)” value in assay [1] (6700 nM) is -0.012 ± 0.017; in assay [1] (20000 nM), -0.003 ± 0.013; in assay [2] (6700 nM) it was -0.0005 ± 0.011; in assay [2] (20000 nM) it was -0.0305 ± 0.022; in assay [3] (6700 nM) it was 0.008 ± 0.0014; in assay [3] (20000 nM), 0.0085 ± 0.029. Also, the “level (log10)” value in assay [3] (60000 nM) was 0.0245 ± 0.056; in assay [4] (6700 nM), -0.0095 ± 0.005; in assay [4] (20000 nM), -0.0065 ± 0.015; in assay [4] (60000 nM) it was 0.008 ± 0.03; in assay [5] (6700 nM), 0.0135 ± 0.028; in assay [5] (20000 nM), 0.0135 ± 0.013. Also, the “level (log10)” value in assay [5] (60000 nM) is 0.0415 ± 0.00071; in assay [6] (6700 nM), -0.0035 ± 0.005; in assay [6] (20000 nM), -0.0165 ± 0.00071; in assay [6] (60000 nM), 0.018 ± 0.047; in assay [7] (6700 nM) it was -0.059 ± 0.051; in assay [7] (20000 nM), -0.0845 ± 0.022. Further, the “level (log10)” value is -0.0965 ± 0.087 in assay [7] (60000 nM) and -0.027 ± 0.0099 with Perfluoroundecanoic acid.

As to CASM3C:HLA-DR, the “level (log10)” value in assay [1] (6700 nM) was -0.012 ± 0.021; in assay [1] (20000 nM), -0.0005 ± 0.0035; in assay [2] (6700 nM) it was -0.0045 ± 0.012; in assay [2] (20000 nM) it was -0.004 ± 0.0085; in assay [3] (6700 nM) it was -0.0195 ± 0.049; in assay [3] (20000 nM), -0.022 ± 0.028. Further, the “level (log10)” value in assay [3] (60000 nM) was 0.002 ± 0.037; in assay [4] (6700 nM), -0.0175 ± 0.0021; in assay [4] (20000 nM), -0.0105 ± 0.012; in assay [4] (60000 nM), 0.013 ± 0.011; in assay [5] (6700 nM), -0.002 ± 0.0099; in assay [5] (20000 nM), -0.0115 ± 0.0021. Further, the “level (log10)” value in assay [5] (60000 nM) was -0.005 ± 0.0085; in assay [6] (6700 nM), -0.035 ± 0.0014; in assay [6] (20000 nM) it was -0.0285 ± 0.012; in assay [6] (60000 nM), 0.0035 ± 0.012; in assay [7] (6700 nM) it was -0.121 ± 0.0028; in assay [7] (20000 nM) it was -0.167 ± 0.0085. Further, the “level (log10)” value in assay [7] (60000 nM) was -0.181 ± 0.067; with Perfluoroundecanoic acid, -0.007 ± 0.017.

With CASM3C:IL-6, the “level (log10)” value is -0.0225 ± 0.00071 in assay [1] (6700 nM); 0.013 ± 0.051 in assay [1] (20000 nM); -0.0275 ± 0.018 in assay [2] (6700 nM); -0.023 ± 0.014 in assay [2] (20000 nM); -0.0195 ± 0.005 in assay [3] (6700 nM); -0.023 ± 0.0099 in assay [3] (20000 nM). In addition, the “level (log10)” value in assay [3] (60000 nM) was -0.016 ± 0.054; in assay [4] (6700 nM), -0.0165 ± 0.0035; in assay [4] (20000 nM) it was -0.0105 ± 0.0035; in assay [4] (60000 nM), 0.0035 ± 0.049; in assay [5] (6700 nM) it was -0.0195 ± 0.021; in assay [5] (20000 nM), -0.0305 ± 0.026. Also, the “level (log10)” value in assay [5] (60000 nM) is -0.013 ± 0.035; in assay [6] (6700 nM), -0.02 ± 0.0014; in assay [6] (20000 nM), -0.0225 ± 0.005; in assay [6] (60000 nM), 0.009 ± 0.061; in assay [7] (6700 nM), -0.097 ± 0.045; in assay [7] (20000 nM), -0.148 ± 0.0071. The entries for the “level (log10)” value (in assay [7] (60000 nM); with Perfluoroundecanoic acid) were -0.189 ± 0.026 and 0.0025 ± 0.0092, respectively.

As for CASM3C:LDLR, the “level (log10)” value was -0.0135 ± 0.00071 in assay [1] (6700 nM); 0.0165 ± 0.029 in assay [1] (20000 nM); -0.0095 ± 0.011 in assay [2] (6700 nM); -0.0165 ± 0.0078 in assay [2] (20000 nM); -0.0485 ± 0.026 in assay [3] (6700 nM); -0.034 ± 0.011 in assay [3] (20000 nM). Moreover, the “level (log10)” value in assay [3] (60000 nM) was -0.0455 ± 0.037; in assay [4] (6700 nM), -0.006 ± 0.0099; in assay [4] (20000 nM) it was -0.0055 ± 0.005; in assay [4] (60000 nM) it was 0.0255 ± 0.035; in assay [5] (6700 nM) it was -0.019 ± 0.0028; in assay [5] (20000 nM), -0.025 ± 0.0042. The “level (log10)” value in assay [5] (60000 nM) was 0.0225 ± 0.022; in assay [6] (6700 nM), -0.0085 ± 0.037; in assay [6] (20000 nM), 0.0045 ± 0.036; in assay [6] (60000 nM) it was 0.018 ± 0.014; in assay [7] (6700 nM), -0.008 ± 0.011; in assay [7] (20000 nM), -0.0175 ± 0.0064. Further, the “level (log10)” value in assay [7] (60000 nM) was -0.022 ± 0.016; in the assay with Perfluoroundecanoic acid, -0.0265 ± 0.016.

Turning to CASM3C:M-CSF, the “level (log10)” value is -0.012 ± 0.013 in assay [1] (6700 nM); 0.0045 ± 0.043 in assay [1] (20000 nM); 0.022 in assay [2] (6700 nM); 0.04 ± 0.0099 in assay [2] (20000 nM); -0.085 ± 0.027 in assay [3] (6700 nM); -0.048 ± 0.0028 in assay [3] (20000 nM). Moreover, the “level (log10)” value in assay [3] (60000 nM) was 0.0105 ± 0.0035; in assay [4] (6700 nM), -0.011 ± 0.0028; in assay [4] (20000 nM), -0.018 ± 0.0042; in assay [4] (60000 nM) it was 0.0145 ± 0.036; in assay [5] (6700 nM), -0.0255 ± 0.026; in assay [5] (20000 nM) it was -0.035 ± 0.02. In addition, the “level (log10)” value in assay [5] (60000 nM) is -0.0345 ± 0.011; in assay [6] (6700 nM) it was -0.0145 ± 0.042; in assay [6] (20000 nM), 0.024 ± 0.048; in assay [6] (60000 nM), 0.0875 ± 0.056; in assay [7] (6700 nM), -0.0435 ± 0.0035; in assay [7] (20000 nM) it was -0.044 ± 0.02. For the same test system, the “level (log10)” value in assay [7] (60000 nM) is -0.068 ± 0.033; in the assay with Perfluoroundecanoic acid, 0.019 ± 0.0085.

For CASM3C:PAI-I, the “level (log10)” value in assay [1] (6700 nM) is -0.0125 ± 0.022; in assay [1] (20000 nM), -0.0005 ± 0.011; in assay [2] (6700 nM), 0.012 ± 0.0057; in assay [2] (20000 nM), 0.0055 ± 0.011; in assay [3] (6700 nM), -0.0085 ± 0.011; in assay [3] (20000 nM), 0.001 ± 0.017. The “level (log10)” value in assay [3] (60000 nM) was -0.0015 ± 0.021; in assay [4] (6700 nM) it was 0.0015 ± 0.021; in assay [4] (20000 nM) it was -0.003 ± 0.0071; in assay [4] (60000 nM), 0.0005 ± 0.0078; in assay [5] (6700 nM), -0.0035 ± 0.012; in assay [5] (20000 nM) it was 0.0005 ± 0.0035. The “level (log10)” value was 0.007 ± 0.0014 in assay [5] (60000 nM); 0.0075 ± 0.025 in assay [6] (6700 nM); 0.007 ± 0.013 in assay [6] (20000 nM); 0.0035 ± 0.0021 in assay [6] (60000 nM); -0.0115 ± 0.012 in assay [7] (6700 nM); -0.019 ± 0.0057 in assay [7] (20000 nM). Further, the figures for the “level (log10)” value (in assay [7] (60000 nM); with Perfluoroundecanoic acid) were -0.0145 ± 0.012 and 0.005 ± 0.0057, respectively.
